In publication PMC10368877, “Acid-sensing ion channel blocker diminazene facilitates proton-induced excitation of afferent nerves in a similar manner that Na^+/H^+ exchanger blockers do” (Frontiers in Cellular Neuroscience, 2023):

Tested on: T1, acid-sensing ion channels (native ASICs of mouse DRG neurons; subunit not identified)
T1 construct: native channels in primary cultured mouse DRG neurons
Test: whole-cell patch clamp, ASIC currents evoked by pH drop […] to […] at -60 mV
Format: cell-based

With `N=C(N)c1ccc(/N=N/Nc2ccc(C(=N)N)cc2)cc1` [diminazene] as the molecule, how does the IC50 read?
The IC50 was 16.9 ± 4.4 µM.
